According to patent US20080293782A1, “1,1,3-Trioxo-1,2,5-Thiadiazolidines and Their Use as Ptp-Ases Inhibitors” (priority 2005, published 2008):

What was measured:
[1] = target: T1, human PTP-1B (Homo sapiens, UniProt P18031); assay: inhibitory activity (IC50) to human PTP-1B; format: biochemical
T1 construct: recombinant human PTP-1B[1-298] or PTP-1B[1-322]
T1 sequence (P18031 1-298 limits assumed): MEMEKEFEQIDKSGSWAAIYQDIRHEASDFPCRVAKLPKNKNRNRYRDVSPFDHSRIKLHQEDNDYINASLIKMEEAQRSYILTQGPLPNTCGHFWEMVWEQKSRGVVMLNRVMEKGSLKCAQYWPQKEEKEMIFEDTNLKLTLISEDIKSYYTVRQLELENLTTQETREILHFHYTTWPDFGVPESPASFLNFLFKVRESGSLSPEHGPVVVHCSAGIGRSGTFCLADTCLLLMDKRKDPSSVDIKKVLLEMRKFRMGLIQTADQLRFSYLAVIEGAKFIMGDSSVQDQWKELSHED
Protocol: For example, the PTP-1B inhibitory activity in vitro may be determined as follows:
Assessment of human PTP-1B (hPTP-1B) activity in the presence of various agents is determined by measuring the amount of inorganic phosphate released from a phosphopeptide substrate using a 96-well microtiter plate format. The assay (100 μL) is performed in an assay buffer comprised of 50 mM TRIS (pH 7.5), 50 mM NaCl, 3 mM DTT at ambient temperature. The assay is typically performed in the presence of 0.4% dimethyl sulfoxide (DMSO). However, concentrations as high as 10% are used with certain poorly soluble compounds. […] Inorganic phosphate, a product of the enzyme reaction, is quantitiated after 15 min as the green color resulting from complexing with the Malichite reagent and is determined as an A620 using a Molecular Devices (Sunnyvale, Calif.) SpectraMAX Plus spectrophotometer. […] Activity is defined as the net change in absorbance resulting from the activity of the uninhibited hPTP-1B[1-411] minus that of a tube with acid-inactivated hPTP-1B[1-411]. […]
Alternatively, the assessment of human PTP-1B activity in the presence of various agents may be determined by measuring the hydrolysis products of known competing substrates. […]

Question: For `N#CCCCn1cc(-c2ccc(O)c(N3CC(=O)NS3(=O)=O)c2)cn1` [Example No. 13-7, 4-{4-[4-Hydroxy-3-(1,1,4-trioxo-1,2,5-thiadiazolidin-2-yl)-phenyl]-1H-pyrazol-1-yl}-butyronitrile], which IC50 [1] is on record?
Answer: 86 nM

Question: For `O=C1CN(c2cc(Oc3ccccc3)ccc2O)S(=O)(=O)N1` [Example 14, 5-(2-Hydroxy-5-phenoxyphenyl)-1,1-dioxo-1,2,5-thiadiazolidin-3-one], which melting point is on record?
Answer: 153 to 157 °C

Question: Which IC50 [1] does the source give for `O=C1CN(c2cc(-c3cn[nH]c3)ccc2O)S(=O)(=O)N1` [Example No. 2-5, 5-[2-Hydroxy-5-(1H-pyrazol-4-yl)-phenyl]-1,1-dioxo-1,2,5-thiadiazolidin-3-one] here?
Answer: 80 nM
